Experimental data reported in publication PMC10600239, “Selective MCL-1 inhibitor ABBV-467 is efficacious in tumor models but is associated with cardiac troponin increases in patients” (Communications Medicine, 2023).

Test system: OCI-AML2 xenografts
Assay: OCI-AML2 xenograft efficacy (tumor volume, body weight)
Details: for Tumor Volume Day 14, Mean / Tumor Volume Day 14, Median / % T/C (mean), Tumor Volume Day 14 / % T/C (median), Tumor Volume Day 14: Day 14 (measure date = dosing begin); for Tumor Volume Day 14, Mean / Tumor Volume Day 18, Mean / Tumor Volume Day 21, Mean: group mean of 8 mice; for Tumor Volume Day 14, Median / Tumor Volume Day 18, Median / Tumor Volume Day 21, Median: group median of 8 mice; for % T/C (mean), Tumor Volume Day 14 / % T/C (median), Tumor Volume Day 14 / % T/C (mean), Tumor Volume Day 18 / % T/C (median), Tumor Volume Day 18 / % T/C (mean), Tumor Volume Day 21 / % T/C (median), Tumor Volume Day 21: control Group 01; for % T/C (mean), Tumor Volume Day 25: mean(T)/mean(C) vs Group 01 (0 mg/kg); for % T/C (median), Tumor Volume Day 25: median(T)/median(C) vs Group 01 (0 mg/kg); for % Mortality: OCI-AML-2 (DSMZ) xenograft, SCID-beige mouse, F
[1] = ABBV-467 […] Q7Dx3 IV, Venetoclax 25 mg/kg QDx14 PO, 5-Aza 8 mg/kg Q7Dx3 IV
[2] = Venetoclax 25 mg/kg QDx14 PO, 5-Aza 8 mg/kg Q7Dx3 IV
[3] = group mean, n=8, ABBV-467 […] Q7Dx3 IV, Venetoclax 25 mg/kg QDx14 PO, 5-Aza 8 mg/kg Q7Dx3 IV
[4] = group median, n=8, ABBV-467 […] Q7Dx3 IV, Venetoclax 25 mg/kg QDx14 PO, 5-Aza 8 mg/kg Q7Dx3 IV

Protocol: All animal studies were conducted in accordance with the guidelines approved by the Institutional Animal Care and Use Committees of AbbVie. The research protocol was approved by In Vivo Pharmacology at AbbVie prior to study initiation but was not publicly registered or disclosed. Female C.B-17 SCID-beige mice (AMO-1, OPM-2, NCI-H929, and OCI-AML2 xenografts) and female NSG mice (MV4-11-Red.Fluc systemic) were purchased from Charles River Laboratories (Wilmington, MA). Animals were housed in a light cycle-controlled room with HEPA filtration at 22 °C. Animals had nesting and climbing cage topper as the primary environmental enrichment. Animals were inoculated subcutaneously in the right flank with 5 × 10^6 (AMO-1, OPM-2, NCI-H929, and OCI-AML2) or intravenous (IV) with 5 × 10^6 (MV4-11-Red.Fluc). The inoculation volume (0.2 mL) comprised a 50:50 mixture of cells in growth media and Matrigel (BD Biosciences) for subcutaneous injections and 100% phosphate-buffered saline for IV administration. […] Electronic calipers were used to measure the length and width of each tumor 2 to 3 times per week. Tumor volume was estimated by applying the following equation: volume = length × width^2/2. All groups remained blinded during measurements and dosing; only veterinary staff were aware of group identity. When tumors reached approximately 200 mm^3, mice were randomized by match and distributed into treatment and control groups. All xenograft trials were conducted using 5 to 10 mice per group, and all mice were ear tagged and monitored individually throughout the studies.
For combination studies, all compounds were administered within 30 min of each other.
The tumor growth delay (TGD) percentage was determined as the percentage increase of the median time period for the treatment group to reach an arbitrary tumor volume of 1000 mm^3 relative to the vehicle control group. […] A power analysis was conducted using historical data to determine the number of animals required to yield significance of 0.05 at a 30% difference. There were no animals excluded. Data from experiments in vivo were analyzed using the student’s t-test for TGI values and the Mann–Whitney U test for TGD using Excel and GraphPad Prism. Fisher’s exact test was used to probe significance of differences in response frequency.

| Structure (SMILES) | Tumor Volume Day 14, Mean [1] [mm³] | Tumor Volume Day 14, Median [1] [mm³] | % T/C (mean), Tumor Volume Day 14 [1] [%] | % T/C (median), Tumor Volume Day 14 [1] [%] | Tumor Volume Day 18, Mean [1] [mm³] | Tumor Volume Day 18, Median [1] [mm³] | % T/C (mean), Tumor Volume Day 18 [1] [%] | % T/C (median), Tumor Volume Day 18 [1] [%] | Tumor Volume Day 21, Mean [1] [mm³] | Tumor Volume Day 21, Median [1] [mm³] | % T/C (mean), Tumor Volume Day 21 [1] [%] | % T/C (median), Tumor Volume Day 21 [1] [%] | Mortality Observation Day 25 (individual animals) [2] | Tumor Volume (mm³) Day 25, Mean [3] [mm³] | Tumor Volume (mm³) Day 25, Median [4] [mm³] | % T/C (mean), Tumor Volume Day 25 [1] [%] | % T/C (median), Tumor Volume Day 25 [1] [%] | other results |
| --- | --- | --- | --- | --- | --- | --- | --- | --- | --- | --- | --- | --- | --- | --- | --- | --- | --- | --- |
| CC1(C)CCC(CN2CCN(c3ccc(C(=O)NS(=O)(=O)c4ccc(NCC5CCOCC5)c([N+](=O)[O-])c4)c(Oc4cnc5[nH]ccc5c4)c3)CC2)=C(c2ccc(Cl)cc2)C1 [A-1195425.0 (Venetoclax)] | 204.64 | 193.77 | 99.79 | 101.49 | 437.16 | 415.67 | 83.63 | 71.96 | 934.07 | 1005.20 | 102.27 | 101.40 | EUTV | 1624.63 | 1781.81 | 83.87 | 91.03 | % Mortality (Group 03, 25 mg/kg PO QDx14): 100.00% |
| Nc1ncn([C@@H]2O[C@H](CO)[C@@H](O)[C@H]2O)c(=O)n1 [5-azacitidine, reference compound] |  |  |  |  |  |  |  |  |  |  |  |  |  |  |  |  |  | effect on OCI-AML2 xenograft growth (venetoclax 25 mg/kg QD × 14, azacitidine 8 mg/kg Q7D × 3, or the combination of both): no meaningful effect |
| Cc1c(Cl)c2c(Cl)c(C)c1-c1c(-c3ccc(F)cc3)sc3ncnc(c13)O[C@@H](C(=O)O)Cc1cc(ccc1OCc1ccnc(-c3ccc(OC[C@H]4COCCO4)cc3)n1)OC[C@@H](CN1CCN(C)CC1)O2 [A-1747745.0 (ABBV-467, MCL-1i)] | 205.07 | 194.10 | 100.01 | 101.66 | 319.69 | 302.00 | 61.16 | 52.29 | 701.23 | 681.22 | 76.77 | 68.72 |  | 978.87 | 1025.66 | 50.53 | 52.40 | Mortality Observation Day 28 (individual animals) (Day 28, ABBV-467 […] Q7Dx3 IV, Venetoclax 25 mg/kg QDx14 PO, 5-Aza 8 mg/kg Q7Dx3 IV): EUTV; Tumor Volume (mm³) Day 28, Mean (Day 28, group mean, n=8, ABBV-467 […] Q7Dx3 IV, Venetoclax 25 mg/kg QDx14 PO, 5-Aza 8 mg/kg Q7Dx3 IV): 1642.98 mm³; Tumor Volume (mm³) Day 28, Median (Day 28, group median, n=8, ABBV-467 […] Q7Dx3 IV, Venetoclax 25 mg/kg QDx14 PO, 5-Aza 8 mg/kg Q7Dx3 IV): 1495.57 mm³ |
| Nc1ncn([C@@H]2O[C@H](CO)[C@@H](O)[C@H]2O)c(=O)n1 [A-37426.0 (5-Aza)] | 204.71 | 196.98 | 99.83 | 103.17 | 420.77 | 428.51 | 80.49 | 74.19 | 806.97 | 777.56 | 88.35 | 78.44 | EUTV | 1474.66 | 1414.73 | 76.12 | 72.28 | % Mortality (Group 04, 8 mg/kg IV Q7Dx3): 100.00% |
